The text below walks through data of patent publication US20090221567A1, “MUSCARINIC RECEPTOR AGONISTS, COMPOSITIONS, METHODS OF TREATMENT THEREOF, AND PROCESSES FOR PREPARATION THEREOF 177” (ASTRAZENECA AB, priority 2008, published 2009).

pEC50: −log10 of the molar value.

As usually defined, the pEC50 is the EC50 on a negative log10 scale, so that one unit is a factor of ten.

For experiment [1], the target named is T1, hM3 (human Muscarinic receptor subtype 3) (Homo sapiens, UniProt P20309).
T1 construct: expressed in transfected cells; host or cells: CHO cells (Chinese hamster ovary cells, ATCC)
The experiment is described as follows: Human M3 calcium mobilization FLIPR assay. In kind it is cell-based. Particulars: receptor expressed in CHO cells, intracellular Ca2+ release. Here is the method:
(§1) The compound activity in the present invention (EC50 or IC50) is measured using a 384 plate-based imaging assay that monitors drug induced intracellular Ca^2+ release in whole cells. Activation of hM1 (human Muscarinic receptor subtype 1, gene bank access NM_000738), rM1 (rat Muscarinic receptor subtype 1, gene bank access NM_080773), hM3 (human Muscarinic receptor subtype 3, gene bank access NM_000740NM_000740) and hM5 (human Muscarinic receptor subtype 5, gene bank access NM_0121258), receptors expressed in CHO cells (Chinese hamster ovary cells, ATCC) is quantified in a Molecular Devices FLIPR IITM instrument as an increase in fluorescent signal. Inhibition of hM3 and hM5 by compounds is determined by the decrease in fluorescent signal in response to 2 nM acetylcholine activation.
(§2) Prior to experiment, the cell culture medium is removed from the plates by inversion. […] Plates are incubated at 37° C. for 60 minutes prior to start the experiment. The incubation is terminated by washing the cells four times in assay buffer, leaving a residual 25 μl buffer per well. Cell plates are then transferred to the FLIPR, ready for compound additions.
(§3) The day of experiment, acetylcholine and compounds are diluted in assay buffer in three-fold concentration range (10 points serial dilution) for addition by FLIPR instrument. For all calcium assays, a baseline reading is taken for 10 seconds followed by the addition of 12.5 μl of compounds, resulting in a total well volume of 37.5 μl. Data is collected every second for 60 pictures and then every 6 seconds for 20 pictures prior to the addition of agonist. For hM3 and hM5, before agonist addition, a second baseline reading is taken for 10 seconds followed by the addition of 12.5 μl of agonist or buffer, producing a final volume of 50 μl. After agonist stimulation, the FLIPR continues to collect data every second for 60 pictures and then every 6 seconds for 20 pictures. The fluorescence emission is read using filter 1 (emission 510-570 nm) by the FLIPR on board CCD camera.
(§4) Calcium mobilization output data are calculated as the maximal relative fluorescence unit (RFU) minus the minimal value for both compound and agonist reading frame (except for hM1 and rM1 using only the maximal RFU). Data are analyzed using sigmoidal fits of a non-linear curve-fitting program (XLfit version 4.2.2 Excel add-in version 4.2.2 build 18 math 1Q version 2.1.2 build 18). All pEC50 and pIC50 values are reported as arithmetic means±standard error of mean of ‘n’ independent experiments.
In general terms: Calcium assays in cells follow changes in intracellular calcium, usually with a dye or a luminescent sensor.

Experiment [2] deals with T2, hM1 (human Muscarinic receptor subtype 1) (Homo sapiens, UniProt P11229).
T2 construct: expressed in transfected cells; host or cells: CHO cells (Chinese hamster ovary cells, ATCC)
T2 sequence (P11229 1-460): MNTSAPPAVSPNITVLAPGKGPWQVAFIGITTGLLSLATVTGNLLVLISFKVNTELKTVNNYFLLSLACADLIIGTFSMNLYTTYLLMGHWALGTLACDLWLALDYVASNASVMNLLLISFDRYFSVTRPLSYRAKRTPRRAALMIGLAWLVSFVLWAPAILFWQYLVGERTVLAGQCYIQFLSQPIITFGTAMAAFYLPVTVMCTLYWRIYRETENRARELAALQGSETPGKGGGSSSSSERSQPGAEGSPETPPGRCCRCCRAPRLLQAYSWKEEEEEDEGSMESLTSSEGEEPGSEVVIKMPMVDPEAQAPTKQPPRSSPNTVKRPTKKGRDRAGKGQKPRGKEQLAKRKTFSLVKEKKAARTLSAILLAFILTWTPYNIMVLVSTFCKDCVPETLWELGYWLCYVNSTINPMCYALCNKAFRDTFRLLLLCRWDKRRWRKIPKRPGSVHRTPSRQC
The experiment is described as follows: Human M1 calcium mobilization FLIPR assay. In kind it is cell-based. To be noted: receptor expressed in CHO cells, intracellular Ca2+ release; read-out: hM1 EC50. On the procedure: as §1, §2, §3, §4

For experiment [3], the target named is T3, human M4 receptor (human Muscarinic receptor subtype 4) (Homo sapiens, UniProt P08173).
T3 construct: purchased Perkin-Elmer RBHM4M; host or cells: membranes from CHO cells expressing the cloned receptor
T3 sequence (P08173 1-479): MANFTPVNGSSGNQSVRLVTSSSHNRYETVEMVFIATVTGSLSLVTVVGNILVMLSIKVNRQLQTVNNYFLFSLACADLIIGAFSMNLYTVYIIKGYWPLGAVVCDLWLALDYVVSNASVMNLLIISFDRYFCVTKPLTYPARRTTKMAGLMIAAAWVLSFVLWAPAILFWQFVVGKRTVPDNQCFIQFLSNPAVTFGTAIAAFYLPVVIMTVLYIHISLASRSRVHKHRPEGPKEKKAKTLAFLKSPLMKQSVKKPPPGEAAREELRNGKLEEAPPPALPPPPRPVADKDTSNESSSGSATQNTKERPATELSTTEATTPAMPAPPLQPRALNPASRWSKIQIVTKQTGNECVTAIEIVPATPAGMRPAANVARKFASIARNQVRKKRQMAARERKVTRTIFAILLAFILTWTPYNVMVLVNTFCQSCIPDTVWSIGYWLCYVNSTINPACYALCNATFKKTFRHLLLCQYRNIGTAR
Kind of experiment: hM4 receptor GTPγS binding. The format is biochemical. To be noted: CHO membranes, [35S]GTPγS binding. On the procedure: Membranes produced from Chinese hamster ovary cells (CHO) expressing the cloned human M4 receptor (human Muscarinic receptor subtype 4, gene bank access NM_000741), are obtained from Perkin-Elmer (RBHM4M). The membranes are thawed at 37° C., passed 3 times through a 23-gauge blunt-end needle, diluted in the GTPγS binding buffer (50 mM Hepes, 20 mM NaOH, 100 mM NaCl, 1 mM EDTA, 5 mM MgCl2, pH 7.4, 100 μM DTT). The EC50, IC50 and Emax of the compounds of the invention are evaluated from 10-point dose-response curves (three fold concentration range) done in 60 μl in 384-well non-specific binding surface plate (Corning). Ten microliters from the dose-response curves plate (5× concentration) are transferred to another 384 well plate containing 25 μl of the following: 10 μg of hM4 membranes, 500 μg of Flashblue beads (Perkin-Elmer) and GDP 40 μM. An additional 15 μl containing 3.3× (60,000 dpm) of GTPγS (0.4 nM final) are added to the wells resulting in a total well volume of 50 μl. Basal and maximal stimulated [^35S]GTPγS binding are determined in absence and presence of 30 μM final of acetylcholine agonist. The membranes/beads mix are pre-incubated for 15 minutes at room temperature with 40 μM GDP prior to distribution in plates (20 μM final). The reversal of acetylcholine-induced stimulation (10 μM final) of [^35S]GTPγS binding is used to assay the antagonist properties (IC50) of the compounds. The plates are incubated for 60 minutes at room temperature then centrifuged at 400 rpm for 5 minutes. The radioactivity (cpm) is counted in a Trilux (Perkin-Elmer).
Values of EC50, IC50 and Emax are obtained using sigmoidal fits of a non-linear curve-fitting program (XLfit version 4.2.2 Excel add-in version 4.2.2 build 18 math 1Q version 2.1.2 build 18) of percent stimulated [^35S]GTPγS binding vs. log(molar ligand). All pEC50 and pIC50 values are reported as arithmetic means±standard error of mean of ‘n’ independent experiments.
(GTPγS is a poorly hydrolysed GTP analogue; its binding reports G protein activation.)

T1 sequence (P20309 whole entry): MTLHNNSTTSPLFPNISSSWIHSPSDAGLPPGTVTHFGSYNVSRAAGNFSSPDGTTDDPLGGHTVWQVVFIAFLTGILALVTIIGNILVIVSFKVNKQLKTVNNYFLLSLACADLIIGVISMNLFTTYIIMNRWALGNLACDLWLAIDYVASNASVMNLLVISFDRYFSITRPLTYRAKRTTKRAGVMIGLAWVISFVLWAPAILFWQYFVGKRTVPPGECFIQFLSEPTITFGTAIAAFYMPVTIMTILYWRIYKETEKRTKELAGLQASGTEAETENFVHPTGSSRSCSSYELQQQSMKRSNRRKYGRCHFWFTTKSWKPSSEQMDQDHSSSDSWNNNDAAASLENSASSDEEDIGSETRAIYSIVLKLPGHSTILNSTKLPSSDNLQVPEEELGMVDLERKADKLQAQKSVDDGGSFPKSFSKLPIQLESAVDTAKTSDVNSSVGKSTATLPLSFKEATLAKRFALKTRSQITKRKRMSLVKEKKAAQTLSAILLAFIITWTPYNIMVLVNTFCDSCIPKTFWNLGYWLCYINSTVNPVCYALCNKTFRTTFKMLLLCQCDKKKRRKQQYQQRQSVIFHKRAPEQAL

Consider `CC(C)OC(=O)N1CCC(N2CCC(N3C(=O)NC[C@H]4CCCC[C@@H]43)CC2)CC1` [Example 2, Propan-2-yl 4-[4-[(4aR,8aS)-2-oxo-3,4,4a,5,6,7,8,8a-octahydroquinazolin-1-yl]-1-piperidyl]piperidine-1-carboxylate], for which the pEC50 is less than 4.31 in experiment [1], 8.28 in experiment [2] and less than 4.70 in experiment [3].
With `Cn1cccc1C(=O)N1CCC(N2CCC(N3C(=O)CO[C@H]4CCCC[C@@H]43)CC2)CC1` [Example 12, (1S,6S)-10-[1-[1-(1-methylpyrrole-2-carbonyl)-4-piperidyl]-4-piperidyl]-7-oxa-10-azabicyclo[4.4.0]decan-9-one], the pEC50 was less than 4.40 in experiment [1], 6.47 in experiment [2] and less than 4.52 in experiment [3].
For `CC(C)OC(=O)N1CCC(C)(N2CCC(N3C(=O)NC[C@H]4CCCC[C@@H]43)CC2)CC1` [Example 8, Propan-2-yl 4-[4-[(4aR,8aS)-2-oxo-3,4,4a,5,6,7,8,8a-octahydroquinazolin-1-yl]-1-piperidyl]-4-methyl-piperidine-1-carboxylate], in that order: less than 4.40, greater than 7.96 and less than 4.52.
Turning to `CC(C)OC(=O)N1CCC(N2CCC(N3C(=O)CO[C@@H]4CCCC[C@H]43)CC2)CC1` [Example 14, Propan-2-yl 4-[4-[(1R,6R)-9-oxo-7-oxa-10-azabicyclo[4.4.0]dec-10yl]-1-piperidyl]piperidine-1-carboxylate], the pEC50 is less than 4.40 in experiment [1], 6.89 in experiment [2] and less than 4.52 in experiment [3].
For `CCOC(=O)N1CCC(N2CCC(N3C(=O)OC[C@H]4CCCC[C@@H]43)CC2)CC1` [Example 15, Ethyl 4-[4-[(1S,6S)-9-oxo-8-oxa-10-azabicyclo[4.4.0]dec-10-yl]-1-piperidyl]piperidine-1-carboxylate], in that order: less than 4.40, 7.08 and less than 4.52.
For the compound `CCOC(=O)N1CCC(C)(N2CCC(N3C(=O)CO[C@H]4CCCC[C@@H]43)CC2)C1` (single isomer, unassigned) [Example 19], the pEC50 in experiment [1] is less than 4.40; in experiment [2], 7.34; in experiment [3] it was less than 4.52.
For `Cc1ccccc1C(=O)N1CCC(N2CCC(N3C(=O)CO[C@H]4CCCC[C@@H]43)CC2)CC1` [Example 11, (1S,6S)-10-[1-[1-(2-methylbenzoyl)-4-piperidyl]-4-piperidyl]-7-oxa-10-azabicyclo[4.4.0]decan-9-one], in that order: less than 4.40, 6.77 and less than 4.52.
For `CCOC(=O)N1CCC(N2CCC(N3C(=O)CO[C@H]4CCCC[C@@H]43)CC2)CC1` [Example 9, Ethyl 4-[4-[(1S,6S)-9-oxo-7-oxa-10-azabicyclo[4.4.0]dec-10-yl]-1-piperidyl]piperidine-1-carboxylate], the results for the pEC50 in experiment [1], in experiment [2] and in experiment [3] were less than 4.40, 7.77 and 5.37, respectively.
In the case of `CCOC(=O)N1CCC(N2CCC(N3C(=O)NC[C@H]4CCCC[C@@H]43)CC2)CC1` [Example 1, Ethyl 4-[4-[(4aR,8aS)-2-oxo-3,4,4a,5,6,7,8,8a-octahydroquinazolin-1-y]-1-piperidyl]piperidine-1-carboxylate], the values for the pEC50 in experiment [2] and in experiment [3] were 8.80 and 5.77, respectively.
In the case of `O=C(C1CC1)N1CCC(N2CCC(N3C(=O)NC[C@H]4CCCC[C@@H]43)CC2)CC1` [Example 3, (4aR,8aS)-1-[1-[1-(cyclopropanecarbonyl)-4-piperidyl]-4-piperidyl]-3,4,4a,5,6,7,8,8a-octahydroquinazolin-2-one], the pEC50 in experiment [1] was less than 4.31; in experiment [2] it was 7.89; in experiment [3], less than 4.52.
In the case of `CCOC(=O)N1CC[C@H](N2CCC(N3C(=O)CO[C@H]4CCCC[C@@H]43)CC2)C1` [Example 13, Ethyl (3S)-3-[4-[(1S,6S)-9-oxo-7-oxa-10-azabicyclo[4.4.0]dec-10-yl]-1-piperidyl]pyrrolidine-1-carboxylate], the pEC50 is less than 4.40 in experiment [1], 6.70 in experiment [2] and less than 4.52 in experiment [3].
For `CCOC(=O)N1CCC(C)(N2CCC(N3C(=O)NC[C@H]4CCCC[C@@H]43)CC2)CC1` [Example 7, Ethyl 4-[4-[(4aR,8aS)-2-oxo-3,4,4a,5,6,7,8,8a-octahydroquinazolin-1-yl]-1-piperidyl]-4-methyl-piperidine-1-carboxylate] the same measures were 6.16, 8.35 and less than 5.80.
Consider `CCOC(=O)N1CCC(C)(N2CCC(N3C(=O)CO[C@H]4CCCC[C@@H]43)CC2)C1` (single isomer, unassigned) [Example 18], for which the pEC50 in experiment [1] was less than 4.40; in experiment [2] it was 7.64; in experiment [3] it was 5.05.
As to `CC(C)OC(=O)N1CCC(N2CCC(N3C(=O)N(C)C[C@H]4CCCC[C@@H]43)CC2)CC1` [Example 6, Propan-2-yl 4-[4-[(4aR,8aS)-3-methyl-2-oxo-4a,5,6,7,8,8a-hexahydro-4H-quinazolin-1-yl]-1-piperidyl]piperidine-1-carboxylate], the pEC50 in experiment [1] was less than 4.40; in experiment [2] it was 7.03; in experiment [3] it was less than 4.52.
